Reference: patent US8987449B2, “Medicine for treating ischemic brain injury and its sequelae, and preparation method thereof” (Haimin Lei, priority 2011, dated 2015)

Columns and labels:
Ca^2+—Mg^2+ ATPase = assay: Ca2+-Mg2+ ATPase of MCAO rats (brain homogenate, kit); assay type: in vivo, rat; details: ischemia side brain homogenate, model group 5.32 ± 2.61
Protocol: 140 healthy SD male rats, weighing 280-300 g, provided by BeiJing Vital River Laboratories, certificate No.: SCXK (Jing) 2002-2003.
1.3 Experimental reagents: 0.9% physiological saline, Ca^2+—Mg^2+ enzyme kit
10% chloral hydrate 0.35 g/kg was injected into the abdominal cavity of a rat to anesthetize thereof. The rat was fixed as supine position. The skin was disinfected thereof by 75% medical alcohol. It was cut right in the middle of the neck. The right common carotid artery, internal carotid artery and external carotid artery were separated and the common carotid artery and external carotid artery were ligated. The internal carotid artery was clamped with a bulldog clamp. A cut was made at the crotch of the external carotid artery and the internal carotid artery followed by releasing the bulldog clamp. The nylon wire (diameter 0.25 mm, marked at a distance of 18 mm from the head end) was inserted into the cut and the insertion was stopped when some resistance was felt. The insert depth was a little longer than 18 mm to achieve the cerebral ischemia caused by middle cerebral artery occlusion. The internal carotid artery was ligated and the nylon wire was fixed. The muscle and skin were sutured layer by layer. In sham operation group, the right common carotid artery, the external carotid artery and the internal carotid artery were only exposed and separated. The rats were conventionally raised in different cages regularly. 0.5 ml penicillin was continuously injected into every rat for three days after the surgery.
The rat condition was evaluated after 6 h after the surgery when the rats were conscious according to the Zea Longa 5 grades evaluating method, wherein no apparent neurological symptom was evaluated as 0 point; not being able to completely stretch the left front claw was evaluated as 1 point; whirling leftward was evaluated as 2 point; leaning leftward when walking was evaluated as 3 point; having an epileptic seizure, losing consciousness and not being able to walk independently was evaluated as 4 point. The rats getting 1-3 point were selected for the subsequent experiment.
The rats were divided into 7 groups in the experiment, that is, sham operation group, model group, Nimodipine group, LQC-T4 large dosage group, LQC-T4 small dosage group, TMP group, and TMP+Vanillic acid group. The model rats getting 1 point were distributed randomly into the model group and other administration group, while the rats getting 2 point and 3 point were distributed randomly into above 6 groups according the above method and sham operation group was not involved in the above grouping. […]

MCAO rats = assay: Grip strength test of the forelimb of MCAO rats; assay type: in vivo, rat; details: for Grip value (g) (3 d): model group 317.01 ± 53.81; for Grip value (g) (7 d): model group 285.58 ± 80.02
Excerpt: 140 healthy SD male rats, weighing 280-300 g, provided by Beijing Vital River Laboratories, certificate No.: SCXK (Jing) 2002-2003. Nylon fishing wire, diameter 0.25 mm, German; YLS-13A, grip strength meter for mice and rats, Shandong Science Technology Instrument Station. The method of [Koizumi J, Yoshida […]. Experimental studies of ischemia brain edema, I: A new experimental model of cerebral embolism in rats in which recirculation can be introduced in the ischemic area[J]. […] After the rats were anesthetized and the skin thereof was disinfected by ethanol. By cutting right in the middle of the neck, the right common carotid artery, internal carotid artery and external carotid artery were separated and the common carotid artery and external carotid artery were ligated. The internal carotid artery was clamped with a bulldog clamp. A cut was made at the crotch of the external carotid artery and the internal carotid artery followed by releasing the bulldog clamp. […] Next, the external carotid artery was ligated and the nylon wire was fixed. In sham operation group, the right common carotid artery, the external carotid artery and the internal carotid artery were only exposed and separated. The rats were routinely raised in different cages. 0.5 ml penicillin was continuously injected into every mouse for three days after the surgery. […] The rats getting 1-3 point were selected for the subsequent experiment. The MCAO rats having the same point were distributed randomly and averagely to each experimental group. […] Evaluated was the change of the grip strength of the forelimb after the cerebral ischemia. A rat was put onto the pulling board making the forepaws thereof grab the cross bar. Then the tester pulled the rat backward to make its body slide backward along the board until the release of the forepaws (during this process it was made sure that the waist of the rat carried no force). The biggest grip strength was read when the forepaws released. Test was carried out twice for every rat and the bigger value was taken. The third and the seventh days after the administration were as the observation time to carry out the test. The SPSS 11.0 software pack was used to carry out the statistical analysis of all the data. The comparison of the enumeration data was carried out with X^2 test P<0.05 had statistical meaning.

[1] = 60 mg/kg intragastrically once a day
[2] = 120 mg/kg intragastrically once a day

## COc1cc(C(=O)OCc2nc(C)c(C)nc2C)ccc1OCc1nc(C)c(C)nc1C [LQC-T4, (3,5,6-trimethylpyrazine-2-yl)methyl 3-methoxy-4-((3,5,6-trimethylpyrazine-2-yl)methoxy) benzoate]
Ca^2+—Mg^2+ ATPase; 60 mg/kg intragastrically once per day for 10 days
  Ca—Mg ATPase activity: 8.91 ± 4.05
Ca^2+—Mg^2+ ATPase; 120 mg/kg intragastrically once per day for 10 days
  Ca—Mg ATPase activity: 10.07 ± 5.15
MCAO rats; [1]
  Grip value (g) (3 d): 395.50 ± 16.88 g
  Grip value (g) (7 d): 468.81 ± 78.14 g
MCAO rats; [2]
  Grip value (g) (3 d): 386.57 ± 42.35 g
  Grip value (g) (7 d): 421.68 ± 59.87 g

## COCCOC(=O)C1=C(C)NC(C)=C(C(=O)OC(C)C)C1c1cccc([N+](=O)[O-])c1 (stereo not drawn) [Nimodipine, reference compound]
Ca^2+—Mg^2+ ATPase; 30 mg/kg once per day for 10 days
  Ca—Mg ATPase activity: 13.25 ± 5.73
MCAO rats; 30 mg/kg once a day
  Grip value (g) (3 d): 409.08 ± 65.13 g
  Grip value (g) (7 d): 393.08 ± 59.61 g

## Cc1nc(C)c(C)nc1C [TMP, tetramethylpyrazine, reference compound]
Ca^2+—Mg^2+ ATPase; 37 mg/kg once per day for 10 days
  Ca—Mg ATPase activity: 9.13 ± 4.11
MCAO rats; 37 mg/kg once a day
  Grip value (g) (3 d): 415.19 ± 26.81 g
  Grip value (g) (7 d): 434.22 ± 50.23 g
